The values below come from US10183020B2 (AstraZeneca AB, priority 2014, dated 2019).

In data set [1] the test system is EGFRm+ and T790M mutant cell lines. The settings on record: in vitro; cited from earlier work.
Data set [2] relates to EGFRm+ sensitising and the T790M resistance mutant forms of EGFR. The settings on record: cited from earlier work.
The test system of data set [3] is wild-type EGFR lines. Particulars: in vitro, compared with mutant cell lines; cited from earlier work.
Data set [4] in a line: Solubility of AZD9291 in simulated gastric fluid, human intestinal fluid and at intestinal pH. An excerpt: (§1) In such cases, where the solubility of a drug varies with pH, and particularly when the solubility is highest at acidic pH, there is a problem that the drug may precipitate from solution as it passes through the gastrointestinal tract. Drugs need to be in solution in order to be absorbed, so such precipitation can lead to variability in the extent and/or rate of absorption of the drug. […] In principle, the dose administered to a patient could be increased to account for potentially poor absorption, but this approach introduces a risk that too much of the drug may enter the patient's system in some cases—which may be a safety risk and/or increase the risk/severity of side-effects. […] Accordingly, there remained a problem to provide an improved way of dosing the Agent to patients that should reduce/avoid the risk of and/or severity of the above-mentioned problems of inter-patient variability of absorption and/or inter-dose variability of absorption.

For data set [5], the system named is EGFRm+ and T790M mutant tumour xenograft and transgenic models. The settings on record: doses as low as 5 mg/kg/day; cited from earlier work.
In data set [6] the test system is advanced EGFRm T790M+ lung adenocarcinoma. The data set can be described thus: Phase 1 clinical trial. The data set is classed as in vivo, human. Particulars: a number of patients; Agent in the form of the mesylate salt. The source says: Further details of this ‘blend in capsule’ formulation are described hereinafter as ‘Comparative Example 1’.
The nature of data set [7]: Permeability. The data set is classed as in vitro ADME.
Source text: as §1

Data set [8] can be described thus: Stability of solution (precipitation). The format is physicochemical. The settings on record: solution once formed.

For `C=CC(=O)Nc1cc(Nc2nccc(-c3cn(C)c4ccccc34)n2)c(OC)cc1N(C)CCN(C)C` [AZD9291, N-(2-{2-dimethylaminoethyl-methylamino}-4-methoxy-5-{[4-(1-methylindol-3-yl)pyrimidin-2-yl]amino}phenyl)prop-2-enamide], in data set [1], the “inhibition of EGFR signaling pathways and cellular growth” value is “potently inhibits”. Also, the “inhibition of EGFRm+ sensitising and T790M resistance mutant forms of EGFR” value in data set [2] was “potent inhibitor”. Moreover, the “activity against wild-type EGFR lines” value in data set [3] is reported as “much less activity”. Further, the pH dependent solubility result in data set [4] was “significant pH dependent solubility”. Besides, the tumor regression result in data set [5] is “profound and sustained tumor regression”. Also, in data set [6], the clinical response result is “partial responses”. In addition, the permeability result in data set [7] is listed as “moderate permeability”.

For the molecule AZD9291 mesylate, in data set [8], the “period over which solution is stable without precipitation” value is given as “at least 24 hours”. For the same molecule, the “solubility at intestinal pH compared with AZD9291 in free base form” value in data set [4] (intestinal pH) is “significantly higher”.
